In patent US10800807B2, “TGR5 modulators and methods of use thereof” (Intercept Pharmaceuticals, Inc., priority 2015, dated 2020):
Positions count from the first letter of the chain named. Values after ≈ are worked out from the molar mass of the structure shown. Read-outs that look alike come from different tables or passages of the source.

How the values were obtained:
Water solubility = format: physicochemical; settings: 0.1 M HCl, pH 1.00, 25° C., read-out: Ws
Experimental: BA were suspended in 100 ml of 0.1 M HCl, pH 1.00, and the saturated solutions were transferred to a thermostat-equipped water bath maintained at 25° C. After incubation for 1 week, the solutions were filtered on a Millipore filter ([…]), and the concentration of BA was measured by HPLC-ESMS/MS as reported below.

[1] = Critical micellar concentration (surface tension / dye solubilization); format: physicochemical
[2] = Lipophilicity, 1-octanol/water partition coefficient (shake-flask); format: physicochemical; settings: pH 8.00, ionized BA
Experimental: The experiments were carried out on 1 mM initial bile salt solution buffered at pH 8.00 with 0.1 M potassium phosphate buffer to ensure complete ionization of the BA. BA concentration in the water phase before and after partition in 1-octanol was measured by HPLC-ESMS/MS as reported below.

[3] = Critical micellar concentration (surface tension / dye solubilization); format: physicochemical; settings: for CMC: BA sodium salts in 0.1 M NaCl, 25° C.; for STCMC: surface tension at CMC
Experimental: In the first method, the surface tension was performed by maximum bubble-pressure method using a Sensadyne 6000 tensiometer (Chem-Dyne Research Corp., Milwaukee, Wis.). The surface tension of aqueous solutions at various concentrations (range 0.1-100 mM) of the BA sodium salts in 0.1 M NaCl was measured at 25° C. The surface tension values were plotted against the logarithm of the bile salt concentration; the regression lines corresponding to the two parts of the curve (monomeric and micellar phases) were calculated using the method of least squares. The critical micellar concentration (CMC) value (mM) was obtained by the intersection of the two lines.
The second method is based on the fact that some dyes, specifically Orange OT ([…]), are almost insoluble in water but dissolve in solutions with micellar aggregates that incorporate them; thus, the intensity of color of the solution increases with bile salt concentration (after CMC achievement). The amount of dye solubilized in relation to bile salt concentration was determined spectrophotometrically.
For each bile acid, various solution at different concentrations, between 50 mM and 0.1 mM with appropriate dilutions, were incubated under stirring at room temperature for 3 days with an excess of Orange OT. Then all the solutions were centrifuged and filtered through a 0.22 μm Millipore fiiter (Millipore Corp., Bedford, Mass.).

TGR5 [4] = target: T1, TGR5 (Homo sapiens, UniProt Q8TDU6); experiment: TGR5 activity: cAMP in hTGR5 CHO-k1 cells; format: cell-based; parameters: expressed in transfected cells; host or cells: CHO-k1; settings: for Emax: 0.5 h, read-out: hTGR5 CHO Efficacy; for EC50: cAMP
T1 sequence (Q8TDU6 1-330): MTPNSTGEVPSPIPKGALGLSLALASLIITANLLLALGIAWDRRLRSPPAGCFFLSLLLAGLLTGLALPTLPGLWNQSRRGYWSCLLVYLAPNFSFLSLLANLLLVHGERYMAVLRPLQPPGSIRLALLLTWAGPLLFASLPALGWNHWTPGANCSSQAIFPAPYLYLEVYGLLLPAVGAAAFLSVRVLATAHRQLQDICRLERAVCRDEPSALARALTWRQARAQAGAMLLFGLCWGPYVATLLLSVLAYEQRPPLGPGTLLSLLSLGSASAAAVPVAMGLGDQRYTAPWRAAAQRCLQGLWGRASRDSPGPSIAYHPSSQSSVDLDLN

mTGR5 = target: T2, mTGR5 (Mus musculus, UniProt Q80SS6); experiment: TGR5 activity: cAMP in mTGR5 CHO-Pi10 clone 4 cells; format: cell-based; settings: for Emax: 0.5 h, read-out: (mTGR5 CHO) Efficacy
T2 construct: expressed in transfected cells; host or cells: CHO-Pi10 clone 4
T2 sequence (Q80SS6 1-329): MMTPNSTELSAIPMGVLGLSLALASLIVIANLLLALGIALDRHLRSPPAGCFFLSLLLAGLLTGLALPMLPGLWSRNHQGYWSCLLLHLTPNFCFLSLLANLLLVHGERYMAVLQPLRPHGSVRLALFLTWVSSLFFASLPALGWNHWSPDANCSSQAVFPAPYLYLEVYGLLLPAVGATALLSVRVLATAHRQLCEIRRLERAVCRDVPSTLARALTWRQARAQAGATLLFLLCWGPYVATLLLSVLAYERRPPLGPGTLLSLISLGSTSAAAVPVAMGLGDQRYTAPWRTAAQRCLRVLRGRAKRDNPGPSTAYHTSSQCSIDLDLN

TGR5 [5] = target: T1, TGR5; experiment: TGR5 activity: intracellular cAMP levels, NCI-H716 cells (HTR-FRET); format: cell-based; parameters: endogenous in cells; host or cells: NCI-H716; settings: for Emax: read-out: TGR5 (NCI-H716) Efficacy; for EC50: cAMP
Experimental: Activation of TGR5 was assessed by measuring the level of cAMP using an HTR-FRET assay. Thus, NCI-H716 cells were cultured on 96-well plates coated with Matrigel (Corning, USA) (0.75 mg/ml) in DMEM supplemented with 10% FCS, 100 units/ml penicillin, and 100 μg/ml streptomycin sulphate. […] The level of intracellular cAMP was determined with Lance kit. Z′ factor was used to validate assays.

[6] = target: T3, mouse glutathione transferase-tagged FXR-LBD (Mus musculus, UniProt Q60641); experiment: FXR AlphaScreen coactivator recruitment assay (mouse); format: biochemical; settings: mouse FXR-LBD, value in parentheses; for EC50: read-out: (mFXR) EC50
T3 construct: mouse glutathione transferase-tagged FXR-LBD (generated in-house); made in house
T3 sequence (Q60641 264-488 limits assumed): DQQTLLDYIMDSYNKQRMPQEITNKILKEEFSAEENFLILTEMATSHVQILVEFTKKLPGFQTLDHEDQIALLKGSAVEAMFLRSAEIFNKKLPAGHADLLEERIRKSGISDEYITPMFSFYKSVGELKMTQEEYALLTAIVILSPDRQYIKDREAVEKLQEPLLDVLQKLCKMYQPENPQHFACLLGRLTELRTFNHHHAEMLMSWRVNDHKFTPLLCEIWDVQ
Experimental: (§1) Activation of the FXR receptor was determined using a recruitment coactivator assay, namely AlphaScreen technology. The assays were performed using human glutathione transferase-tagged FXR-LBD (Life Technologies, USA) and mouse glutathione transferase-tagged FXR-LBD (generated in-house). Briefly, assays were conducted in white, low-volume, 384-well OptiPlate using a final volume of 25 μL containing 10 nM glutathione transferase-tagged FXR-LBD protein and 30 nM biotinylated Src-1 peptide. The stimulation was carried out with different BA concentrations for 30 minutes at 25° C. […] Dose-response curves were performed in triplicate and Z′ factor was used to validate the robustness of the assay.

bovine serum albumin = bovine serum albumin (Bos taurus, UniProt P02769); experiment: Albumin binding by equilibrium dialysis; format: in vitro ADME; settings: 5% bovine serum albumin saline solution, 25° C.
bovine serum albumin, sequence (P02769 25-607): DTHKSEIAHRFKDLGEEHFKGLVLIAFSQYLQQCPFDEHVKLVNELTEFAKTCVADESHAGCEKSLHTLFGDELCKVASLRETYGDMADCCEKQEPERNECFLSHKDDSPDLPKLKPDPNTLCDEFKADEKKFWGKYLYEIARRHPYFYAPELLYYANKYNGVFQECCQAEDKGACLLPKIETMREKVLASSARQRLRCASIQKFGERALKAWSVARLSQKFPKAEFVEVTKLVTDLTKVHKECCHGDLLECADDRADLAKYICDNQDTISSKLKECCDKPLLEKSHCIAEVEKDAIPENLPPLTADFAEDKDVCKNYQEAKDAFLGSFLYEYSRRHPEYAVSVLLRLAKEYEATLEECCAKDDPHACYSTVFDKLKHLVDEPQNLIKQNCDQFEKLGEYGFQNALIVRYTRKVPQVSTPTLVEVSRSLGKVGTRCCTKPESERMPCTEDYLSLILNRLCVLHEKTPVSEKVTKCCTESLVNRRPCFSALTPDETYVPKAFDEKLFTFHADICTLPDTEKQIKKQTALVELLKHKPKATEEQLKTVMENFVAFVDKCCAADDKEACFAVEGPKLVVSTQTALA
Experimental: BA was dissolved at a concentration of […] in 5% bovine serum albumin saline solution and left to stand for 24 hours at 25° C. Two milliliters of this solution was dialyzed in cellulose sacs with a molecular weight cut-off of 12-14 kDa (Spectra/Por; Spectrum Medical Industries Inc., Rancho Dominguez, Calif.) against 25 ml of saline solution. The system was equilibrated by mechanical shaking for 72 hours at 25° C. BA concentrations in the starting solution and in the dialyzed solution were determined by HPLC-ES-MS/MS as reported below.

[7] = target: T4, human glutathione transferase-tagged FXR-LBD (Homo sapiens, UniProt Q96RI1); experiment: FXR AlphaScreen coactivator recruitment assay (human); format: biochemical; parameters: Emax: dose or concentration left out as unconfirmed; settings: for EC50: human FXR-LBD, AlphaScreen, read-out: hFXR EC50; for Emax: read-out: hFXR Efficacy;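 as to hFXR Efficacy: CDCA at 50 µM taken as 100%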
T4 construct: human glutathione transferase-tagged FXR-LBD (Life Technologies, USA); purchased Life Technologies, USA
T4 sequence (Q96RI1 262-486 limits assumed): T3 sequence (Q60641 264-488 limits assumed) with D7H, Y8F, S46N, I50V, A95S, A98S, K107N, V125I, M174I, Y175H
Experimental: as §1

[8] = simulated gastric fluid, thermodynamic from solid
[9] = mTGR5 CHO cells, value in parentheses

SMILES | solubility thermodynamic at 1 week (Water solubility; [8]) [µM] | CMpH [1] | LogPA− [2] | pKa (pKa) | CMC [3] [mM] | Albumin binding (%) (bovine serum albumin) | solubility thermodynamic at 1 week (Water solubility) [µM] | STCMC [3] [Dyne/cm] | further results
CC[C@H]1[C@@H](O)C2C3CC[C@H]([C@H](C)CC(F)(F)C(=O)O)[C@@]3(C)[C@@H](O)CC2[C@@]2(C)CC[C@@H](O)C[C@@H]12 (stereo partly drawn) [Compound 3, 3α,7α,12α-Trihydroxy-6α-ethyl-23,23-gemdifluoro-5β-cholan-24-oic acid] | 225 (≈ 106 µg/mL) | 2.7 | 1.0 | 1.1 | 10 |  |  |  | 
CC[C@H]1[C@@H](O)C2C3CC[C@H]([C@H](C)C[C@@H](CO)C(=O)O)[C@@]3(C)[C@@H](O)CC2[C@@]2(C)CC[C@@H](O)C[C@@H]12 (stereo partly drawn) [Compound 4, 3α,7α,12α-Trihydroxy-6α-ethyl-23(A)-hydroxymethyl-5β-cholan-24-oic acid] | 3200 (≈ 1490 µg/mL) | 4.5 | −0.2 | 4.36 | 5 | 55 |  |  | Emax (TGR5 [4]; CHO): 99 ± 1.4%; EC50 (TGR5 [4]; hTGR5 CHO cells): 4.65 ± 0.5 µM; Emax (mTGR5; CHO): 102%; EC50 (mTGR5; [9]): 1.3 µM; Emax (TGR5 [5]; NCI-H716, 1 h): 77 ± 10%; EC50 (TGR5 [5]; NCI-H716 cells): 7.5 ± 5 µM; EC50 [6]: > 150 µM; EC50 [7]: 80 ± 30 µM; Emax [7]: 20 ± 2%
CC[C@H]1[C@@H](O)[C@@H]2[C@H](C[C@H](O)[C@]3(C)[C@@H]([C@H](C)C[C@H](F)C(=O)O)CC[C@@H]23)[C@@]2(C)CC[C@@H](O)C[C@@H]12 [Compound 8, 3α,7α,12α-Trihydroxy-6α-ethyl-23(S)-fluoro-5β-cholan-24-oate] | 971 (≈ 441 µg/mL) | 3.6 | 0.01 | 2.82 | 6 | 84 |  |  | Emax (TGR5 [4]; hTGR5 CHO cells, Ref. LCA 100% at 10 μM): 103 ± 2%; EC50 (TGR5 [4]; hTGR5 CHO cells): 0.5 ± 0.1 µM; Emax (mTGR5; [9]): 100%; EC50 (mTGR5; [9]): 0.78 µM; Emax (TGR5 [5]; 1 h, NCI-H716 cells, Ref. LCA 100% at 10 μM): 97 ± 1.7%; EC50 (TGR5 [5]; NCI-H716 cells): 7 ± 3 µM; EC50 [6]: 59.5 µM; Emax ([6]; read-out: (mFXR) Efficacy): 47%; EC50 [7]: 5.6 ± 1 µM; Emax [7]: 113 ± 3%
C[C@H](CCC(=O)NCC(=O)O)[C@H]1CC[C@H]2[C@@H]3[C@H](O)C[C@@H]4C[C@H](O)CC[C@]4(C)[C@H]3C[C@H](O)[C@]12C [GCA, reference compound] |  | 6.3 | −0.4 | 3.9 | 8 | 65 | 32 (≈ 14.9 µg/mL) | 48.8 | 
C[C@H](CCC(=O)NCC(=O)O)[C@H]1CC[C@H]2[C@@H]3[C@H](O)C[C@@H]4C[C@H](O)CC[C@]4(C)[C@H]3CC[C@]12C [GCDCA, reference compound] |  | 6.4 | 0.4 | 3.9 | 2 | 85 | 7 (≈ 3.15 µg/mL) | 45.2 | 
C[C@H](CC(=O)O)[C@H]1CC[C@H]2[C@@H]3[C@H](O)C[C@@H]4C[C@H](O)CC[C@]4(C)[C@H]3CC[C@]12C [Nor-CDCA, 24-nor-CDCA, reference compound] |  | 7.9 | 0.5 | 5 | 20 | 95 | 23 (≈ 8.71 µg/mL) |  | 
CC[C@H]1[C@@H](O)C2C3CC[C@H]([C@H](C)CCC(=O)O)[C@@]3(C)CCC2[C@@]2(C)CC[C@@H](O)C[C@@H]12 (stereo partly drawn) [Ref. Cmpd. B, reference compound] | 9 (≈ 3.79 µg/mL) | 7.2 | 2.5 | 5 | 2.9 | 96 |  | 48.8 | 
